Measurements taken from publication PMC6454048, “Identification of Cbp1, a c-di-GMP Binding Chemoreceptor in Azorhizobium caulinodans ORS571 Involved in Chemotaxis and Nodulation of the Host Plant” (Frontiers in Microbiology, 2019).

Target: T1, Cbp1 (c-di-GMP binding protein 1; PilZ domain containing chemoreceptor) (Azorhizobium caulinodans, UniProt A8II15)
T1 construct: gene AZC_3349; Cbp1 ORF with C-terminal 6×His tag, expressed in E. coli Top10
Experiment: ITC ([…] protein titrated with […] c-di-GMP); also protein thermal shift assay

T1 sequence (A8II15 1-581): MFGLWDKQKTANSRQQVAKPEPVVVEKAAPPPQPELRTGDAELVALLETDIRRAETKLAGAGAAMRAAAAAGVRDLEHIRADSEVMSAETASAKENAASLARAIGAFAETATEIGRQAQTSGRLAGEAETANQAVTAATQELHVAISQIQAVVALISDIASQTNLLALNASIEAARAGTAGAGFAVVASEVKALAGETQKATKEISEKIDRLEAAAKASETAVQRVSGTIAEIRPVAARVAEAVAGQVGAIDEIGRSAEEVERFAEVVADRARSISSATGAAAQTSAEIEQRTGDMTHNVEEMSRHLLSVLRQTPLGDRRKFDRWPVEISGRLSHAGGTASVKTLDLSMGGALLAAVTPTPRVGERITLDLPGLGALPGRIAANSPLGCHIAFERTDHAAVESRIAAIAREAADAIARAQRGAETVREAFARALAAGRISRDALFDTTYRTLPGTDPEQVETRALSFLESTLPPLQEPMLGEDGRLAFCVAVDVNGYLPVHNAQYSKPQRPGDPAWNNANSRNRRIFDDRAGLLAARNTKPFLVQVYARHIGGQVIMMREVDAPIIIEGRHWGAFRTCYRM

Kd: 14.9 ± 1.6 µM
SMILES: Nc1nc2c(ncn2[C@@H]2O[C@@H]3CO[P@](=O)(O)O[C@H]4[C@@H](O)[C@H](n5cnc6c(=O)[nH]c(N)nc65)O[C@@H]4CO[P@](=O)(O)O[C@H]3[C@H]2O)c(=O)[nH]1 [c-di-GMP]
